Earlier results as cited in US20110171165A1 (priority 2008, published 2011).
pKi: −log10 of the molar value.

Target: δ receptors (Cavia porcellus, UniProt A0A286XTF2)
Conditions: read-out: affinity for δ receptors; guinea-pig brain membranes

Sequence of δ receptors (A0A286XTF2 1-366): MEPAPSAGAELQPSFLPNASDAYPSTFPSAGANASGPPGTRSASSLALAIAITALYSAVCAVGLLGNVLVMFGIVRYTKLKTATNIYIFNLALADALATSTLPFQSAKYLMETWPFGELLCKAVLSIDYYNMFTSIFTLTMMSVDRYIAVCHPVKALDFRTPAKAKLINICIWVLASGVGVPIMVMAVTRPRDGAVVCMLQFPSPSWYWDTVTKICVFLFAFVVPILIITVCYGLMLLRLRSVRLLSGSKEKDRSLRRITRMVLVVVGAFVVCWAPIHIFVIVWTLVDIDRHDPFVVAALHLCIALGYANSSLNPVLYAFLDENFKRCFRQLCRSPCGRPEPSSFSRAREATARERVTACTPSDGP

CSCC[C@H](NC(=O)[C@H](Cc1ccccc1)NC(=O)CNC(=O)CNC(=O)[C@@H](N)Cc1ccc(O)cc1)C(=O)O [OGF, Tyr-Gly-Gly-Phe-Met]
pKi: 9.05
